Publication PMC10953480 (RSC Medicinal Chemistry, 2024)

Legend:
Cos-7 cells = test: Cytotoxicity to Cos-7 cells; type: cell-based, African green monkey (Cercopithecus aethiops)
CaV2.2 = conditions: read-out: CaV2.2 IC50; whole-cell patch clamp; cited from earlier work

Row | SMILES | concentration up to which well tolerated by Cos-7 cells (Cos-7 cells) [µM] | IC50 (CaV2.2) [µM]
1 | CN(C)CCCOc1ccc(C(=O)Nc2ccccc2Oc2ccccc2)cc1 [7b] | ≤ 100 | –
2 | NC(N)=NCCCOc1ccc(C(=O)Nc2ccccc2Oc2ccc(F)cc2)cc1 [MONIRO-1 6a] | – | 34
